Series [1] can be described thus: Peptide stability in a human colon model (pooled human faecal slurry, anaerobic). The note with it: for Degradation rate constant / half-life at 1 mg/mL: fitted to exponential (one-phase, first-order) decay model; for Degradation rate constant: plateau 0.0; for remaining at 1.5 h, 1 mg/mL: after 1.5 h incubation, n = 3, read-out: peptide remaining intact (of starting concentration); for time interval in which entirely depleted: footnote to Table S1; for higher stability than linear P1: at 30 min, relative to P1 (totally degraded). Type of series: in vitro ADME. Here is the method: The human colon model (HCM) was prepared to mimic in vivo colonic conditions and maintain microbial viability. Fresh human faecal material was provided voluntarily from 3 healthy individuals who had not taken antibiotics for at least 6 months. Approval for the collection and use of human faecal material was obtained from the National Research Ethics Service (NRES) of Royal Free Hospital Biobank (reference number NC2017.010). Faecal material from the 3 donors was pooled and then diluted within an anaerobic workstation (37 °C, 70% relative humidity) (Elektrotek, Yorkshire, United Kingdom), using an in-house basal growth media to prepare 12.5% or 25% faecal slurries. These slurry concentrations have been used to measure the colonic stability of several drugs and exceed the minimum concentrations required for biorelevant bacterial activity. The samples were homogenised before being sieved (SefarNitex™, pore size 350 µm) to remove fibrous material. Faecal slurry was frozen at −80 °C in aliquots and thawed immediately prior to use.
Peptide stability studies were conducted within the anaerobic workstation (Elektrotek, Yorkshire, United Kingdom). An amount of 2 mg/mL stock solutions of oxytocin and oxytocin variants were prepared and added to HCM at a 1:1 ratio, leading to 1 mg/mL incubation concentrations (n = 3 for each peptide). Incubation vials were placed on a 100 RPM shaker and 50 µL samples were withdrawn at specific time intervals (0, 0.5, 1 and 1.5 h) and immediately quenched with 50 µL methanol (1:1) to terminate protease activity. Samples were centrifuged at 16,900 RCF for 10 min at 4 °C, and the supernatant was collected for peptide quantification with a 1260 II Series™ HPLC system (Agilent Technologies, Cheadle, UK). A Luna C18 (5 µm, 100 Å, 150 × 4.6 mm) HPLC column was used with a 1.0 mL/min flow rate, an injection volume of 20 µL and mobile phases of 0.1% TFA in water and ACN, with varying gradients for optimised individual peptide quantification to prevent overlap with endogenous components of the HCM.
All results are presented as mean ± standard deviation and subjected to statistical analysis using GraphPad Prism 9 (GraphPad by Dotmatics). Two-way ANOVA with Dunnett’s multiple comparison test was performed to determine statistical significance between peptides and native oxytocin at multiple timepoints. Results were deemed significant where p < 0.05. The physicochemical properties of peptides were estimated using RDKit (version 2021.09.4) in Python (version 3.6.15) via Jupyter Notebook (version 6.3.0) using the peptides’ isomeric SMILES. The Tanimoto similarities of the peptide variants’ molecular structure to native oxytocin was calculated using chemical fingerprints (ECFP6, radius 3, 2048 bits) RDKit (version 2022.9.1) with Python (version 3.7.0) via Google Colaboratory. Chemical similarity maps were generated using RDKit based on bit-vector fingerprints (chirality = true, radius 3, 2048 bits) and Tanimoto similarity. The degradation profiles of peptides were fitted to an exponential decay model in GraphPad Prism 9. A nonlinear regression (one-phase decay, also known as first-order decay) curve was fitted to the peptide stability data with a plateau constraint of 0.0.

A short description of series [2]: Peptide tissue permeability, Ussing chamber with rat colonic tissue. The note with it: for original dose detected in the basolateral chamber / original dose detected within the colonic tissue: at 2 h; for Papp at 2 h, 1 mg/mL: pH 7.4, 2 h (120 min). Type of series: in vitro ADME. Here is the method: Peptide permeability studies were conducted using the NaviCyte Vertical Ussing chamber model (Harvard Apparatus, Cambridge, UK). Amounts of 250–300 g adult male Wistar rats (n = 3) were selected and sacrificed, in accordance with the accepted ethical standards of the National Research Ethics Service (ethical approval number 21/WA/0388). The rat colonic tissues were excised, processed to remove luminal contents and gently washed with Krebs-Ringer Bicarbonate (KBR) buffer (pH 7.4). Each colonic tissue was mounted on an Ussing chamber with the mucosal side facing the apical chamber. The tissue was allowed to acclimatise in the KBR buffer for 20 min. Transepithelial electrical resistance (TEER) across the tissue was measured using an EVOM^TM voltameter (World Precision Instruments, Inc., Hertfordshire, UK) and Ag/AgCl electrodes (Harvard Apparatus, Cambridge, UK). TEER values were measured to ensure the tissue integrity was maintained (≥200 Ω cm^2). The native oxytocin and oxytocin variants at 1 mg/mL concentrations were added to the apical chamber to measure peptide permeation into the tissue and into the basal chamber. Each peptide was tested twice using tissue from the three rats to account for any inter-animal variability. The Ussing chambers were continuously pumped with a supply of carbogen (95% oxygen/5% carbon dioxide) and maintained at 37 °C. An amount of 100 µL samples were taken from the basal side at 1 and 2 h timepoints. At 2 h, the tissues were collected, quenched with 6.25 µL methanol/mg tissue, sectioned with scissors, sonicated for 5 min and centrifuged for 10 min (4 °C, 16,900 RCF), with the supernatant used for peptide quantification. The amount of peptide within the basal chamber and tissue samples was measured with the HPLC method described in Section 3.3 and presented as the percentage of the peptide dose originally applied to the apical chamber. The apparent permeability (Papp) of peptides was calculated using Equation (1):(1) […]
Equation (1): Apparent permeability (Papp) of peptides across the rat colonic tissue was calculated using the peptide flux (µg/s, dQ/dt), the surface area of the tissue (cm^2) and the initial peptide concentration in the apical chamber (C0).

Setting [3] is: human, human colon model (HCM), pooled human faecal slurry.
[4] abbreviates: human, human colon model (pooled human faecal slurry, anaerobic), HCM.
Where [5] appears, read: male, Wistar, 1 mg/mL apical, read-out: apparent permeability (Papp).

Bridge positions count the residues as written; N and C are the ends. Square brackets hold non-standard residues; d marks the D form. Ends that are not written are not given here. Peptide text beside a SMILES is read from it.

Twelve molecules from PMC10384666, “Impact of Peptide Structure on Colonic Stability and Tissue Permeability” (Pharmaceutics, 2023) can be followed below.

A word on the half-life: it is the time needed for the level to fall by half in the phase considered. A lower half-life goes with rapid decline. For orientation: Papp means a coefficient for how fast a substance crosses the barrier.

In series [1] (HCM), `CC[C@H](C)[C@@H]1NC(=O)[C@H](Cc2ccc(O)cc2)NC(=O)[C@@H](N)CSSC[C@@H](C(=O)N2CCC[C@H]2C(=O)N[C@H](CC(C)C)C(=O)NCC(N)=O)NC(=O)[C@H](CC(N)=O)NC(=O)[C@H](CCC(N)=O)NC1=O` [Peptide P7] gave a Degradation rate constant of 1.05 h⁻¹. This molecule also gave a half-life at 1 mg/mL in series [1] (setting [3]) of 39.6 min. In addition, the remaining at 1.5 h, 1 mg/mL in series [1] (setting [4]) was 22.3 ± 0.85%.

Take `CC[C@H](C)[C@H](NC(=O)[C@H](Cc1ccc(O)cc1)NC(=O)[C@H](C)N)C(=O)N[C@@H](CCC(N)=O)C(=O)N[C@@H](CC(N)=O)C(=O)N[C@@H](C)C(=O)N1CCC[C@H]1C(=O)N[C@H](CC(C)C)C(=O)NCC(N)=O` [Peptide P9] (H-AYIQNAP[dL]G-NH2): in series [1] (HCM), the “time to total degradation” value was “less than 30 min” and the “time interval in which entirely depleted” value is 0.0 to 0.5 h.

On to `CC[C@@H](C)[C@H]1NC(=O)[C@@H](Cc2ccc(O)cc2)NC(=O)[C@@H](N)CSSC[C@@H](C(=O)N2CCC[C@H]2C(=O)N[C@H](CC(C)C)C(=O)NCC(N)=O)NC(=O)[C@H](CC(N)=O)NC(=O)[C@H](CCC(N)=O)NC1=O` [Peptide P4], for which, in series [1] (HCM), the “higher stability than linear P1” value is 90.3 ± 1.57% and the Degradation rate constant worked out at 0.108 h⁻¹. The molecule also showed a half-life at 1 mg/mL in series [1] (setting [3]) of 385 min. In addition, the remaining at 1.5 h, 1 mg/mL in series [1] (setting [4]) was found to be 85.1 ± 0.21%. In series [2], the “original dose detected in the basolateral chamber” value is 6.85 ± 2.05% and the “original dose detected within the colonic tissue” value is reported as 3.0 ± 0.85%. Moreover, the Papp at 1 h, 1 mg/mL in series [2] (male, Wistar, pH 7.4, 1 h (60 min), 1 mg/mL apical, read-out: apparent permeability (Papp)) came out at 57 ×10⁻⁶ cm/s. The Papp at 2 h, 1 mg/mL in series [2] (setting [5]) was found to be 206 ×10⁻⁶ cm/s.

`CC[C@@H](C)[C@@H](NC(=O)[C@@H](Cc1ccc(O)cc1)NC(=O)[C@H](C)N)C(=O)N[C@@H](CCC(N)=O)C(=O)N[C@@H](CC(N)=O)C(=O)N[C@@H](C)C(=O)N1CCC[C@H]1C(=O)N[C@H](CC(C)C)C(=O)NCC(N)=O` [Peptide P11] (H-A[dY][dI]QNAP[dL]G-NH2): in series [1] (HCM), the Degradation rate constant was found to be 0.289 h⁻¹. In series [1] (setting [3]), this molecule showed a half-life at 1 mg/mL of 144 min. The remaining at 1.5 h, 1 mg/mL in series [1] (setting [4]) was determined as 64.2 ± 1.18%. In series [2] (setting [5]), the Papp at 2 h, 1 mg/mL was determined as 35.2 ×10⁻⁶ cm/s.

Consider `CC[C@H](C)[C@@H]1NC(=O)[C@H](Cc2ccc(O)cc2)NC(=O)[C@@H](N)CSSC[C@@H](C(=O)N2CCC[C@H]2C(=O)N[C@@H](CC(C)C)C(=O)NCC(N)=O)NC(=O)[C@H](CC(N)=O)NC(=O)[C@H](CCC(N)=O)NC1=O` [Oxytocin, oxytocin, reference compound], for which, in series [1] (HCM), the “higher stability than linear P1” value is given as 47.3 ± 1.98% and the Degradation rate constant was 1.62 h⁻¹. Also, in series [1] (setting [4]), the remaining at 1.5 h, 1 mg/mL came to 6 ± 1.36%. The molecule also had a half-life at 1 mg/mL in series [1] (human, HCM) of 25.7 min. Also, in series [2], the “original dose detected in the basolateral chamber” value is “not detected” and the “original dose detected within the colonic tissue” value is “not detected”.

Consider `CC[C@H](C)[C@@H]1NC(=O)[C@H](Cc2ccc(O)cc2)NC(=O)[C@H](C)NC(=O)CSC[C@@H](C(=O)N2CCC[C@H]2C(=O)N[C@@H](CC(C)C)C(=O)NCC(N)=O)NC(=O)[C@H](CC(N)=O)NC(=O)[C@H](CCC(N)=O)NC1=O` [Peptide P3] ({CH2CO}-AYIQNCPLG-NH2; thioether N-6), for which, in series [1] (HCM), the Degradation rate constant was determined as 0.688 h⁻¹. Further, the half-life at 1 mg/mL in series [1] (setting [3]) was 60.4 min. The remaining at 1.5 h, 1 mg/mL in series [1] (setting [4]) turned out to be 34.4 ± 0.61%.

In the case of `CC[C@H](C)[C@@H]1NC(=O)[C@H](Cc2ccc(O)cc2)NC(=O)[C@@H](N)CSCc2cccc(c2)CSC[C@@H](C(=O)N2CCC[C@H]2C(=O)N[C@@H](CC(C)C)C(=O)NCC(N)=O)NC(=O)[C@H](CC(N)=O)NC(=O)[C@H](CCC(N)=O)NC1=O` [Peptide P6], in series [1] (HCM), the “time to 100% degradation” value is recorded as “less than 1 h” and the Degradation rate constant turned out to be 5.39 h⁻¹. The half-life at 1 mg/mL in series [1] (setting [3]) was 7.71 min.

Regarding `CC[C@@H](C)[C@H]1NC(=O)[C@@H](Cc2ccc(O)cc2)NC(=O)[C@@H](N)CSSC[C@@H](C(=O)N2CCC[C@H]2C(=O)N[C@@H](CC(C)C)C(=O)NCC(N)=O)NC(=O)[C@H](CC(N)=O)NC(=O)[C@H](CCC(N)=O)NC1=O` [Peptide P8], in series [1] (HCM), the Degradation rate constant was 2.33 h⁻¹. The molecule further gave a half-life at 1 mg/mL in series [1] (setting [3]) of 17.8 min. Besides, the remaining at 1.5 h, 1 mg/mL in series [1] (setting [4]) worked out at 3.7 ± 0.43%.

With “P1: Linear form of oxytocin, the two cysteines replaced by alanines (AYIQNAPLG-NH2; ends and bridges not checked; UniProt P01178 20-28, looked up, variant C1A C6A) [Peptide P1]”, the “time interval in which entirely depleted” value in series [1] (HCM) was in the range of 0.0 to 0.5 h.

In the case of `CC[C@H](C)[C@@H]1NC(=O)[C@H](Cc2ccc(O)cc2)NC(=O)[C@@H](NC(C)=O)CSSC[C@@H](C(=O)N2CCC[C@H]2C(=O)N[C@@H](CC(C)C)C(=O)NCC(N)=O)NC(=O)[C@H](CC(N)=O)NC(=O)[C@H](CCC(N)=O)NC1=O` [Peptide P2], the Degradation rate constant in series [1] (HCM) was 3.17 h⁻¹. The molecule further had a half-life at 1 mg/mL in series [1] (setting [3]) of 13.1 min. For the same molecule, in series [1] (human, human colon model (pooled human faecal slurry, anaerobic), HCM, after 1.5 h, read-out: peptide degraded by the HCM), the metabolised at 1.5 h, 1 mg/mL worked out at 97.2 ± 0.84%.

Regarding `CC[C@@H](C)[C@H]1NC(=O)[C@@H](Cc2ccc(O)cc2)NC(=O)[C@H](C)NC(=O)CSC[C@@H](C(=O)N2CCC[C@H]2C(=O)N[C@H](CC(C)C)C(=O)NCC(N)=O)NC(=O)[C@H](CC(N)=O)NC(=O)[C@H](CCC(N)=O)NC1=O` [Peptide P5] ({CH2CO}-A[dY][dI]QNCP[dL]G-NH2; thioether N-6), in series [1] (HCM), the Degradation rate constant was 0.0322 h⁻¹. In series [1] (setting [3]), the half-life at 1 mg/mL was 1290 min. Further, the remaining at 1.5 h, 1 mg/mL in series [1] (setting [4]) turned out to be 95.2 ± 3.14%.

Take `CC[C@@H](C)[C@@H](NC(=O)[C@@H](Cc1ccc(O)cc1)NC(=O)[C@H](C)N)C(=O)N[C@@H](CCC(N)=O)C(=O)N[C@@H](CC(N)=O)C(=O)N[C@@H](C)C(=O)N1CCC[C@H]1C(=O)N[C@@H](CC(C)C)C(=O)NCC(N)=O` [Peptide P10] (H-A[dY][dI]QNAPLG-NH2): the Degradation rate constant in series [1] (HCM) stood at 2.05 h⁻¹. In addition, the half-life at 1 mg/mL in series [1] (setting [3]) was 20.3 min.
